Literature values in patent US20240141352A1, “CHAPERONIN-CONTAINING TCP-1 INHIBITORS FOR THE TREATMENT OF CANCER” (UNIVERSITY OF CENTRAL FLORIDA RESEARCH FOUNDATION, INC., priority 2021, published 2024).

Tests used:
MDA-MB-231 cells = settings: MDA-MB-231 spheroids
CCT2 subunit = molecular target: T1, CCT2 subunit (Homo sapiens, UniProt P78371)
T1 sequence (P78371 1-535): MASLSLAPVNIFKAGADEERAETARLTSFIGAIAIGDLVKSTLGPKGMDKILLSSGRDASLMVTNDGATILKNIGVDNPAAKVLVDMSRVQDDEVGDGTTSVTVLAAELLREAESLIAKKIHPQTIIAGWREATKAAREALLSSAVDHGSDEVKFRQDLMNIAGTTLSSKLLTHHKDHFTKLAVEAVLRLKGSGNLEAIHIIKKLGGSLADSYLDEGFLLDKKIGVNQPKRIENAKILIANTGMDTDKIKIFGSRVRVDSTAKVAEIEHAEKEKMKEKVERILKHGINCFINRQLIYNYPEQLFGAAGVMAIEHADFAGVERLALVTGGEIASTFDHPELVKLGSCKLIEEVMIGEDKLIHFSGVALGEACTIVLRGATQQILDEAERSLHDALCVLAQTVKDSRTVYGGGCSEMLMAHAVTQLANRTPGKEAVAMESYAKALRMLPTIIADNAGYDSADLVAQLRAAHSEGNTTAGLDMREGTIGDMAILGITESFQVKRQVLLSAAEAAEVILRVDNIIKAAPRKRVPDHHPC

[1] = tested on: breast and prostate tumors; settings: systemic delivery with polymeric nanoparticles
[2] = tested on: cancer cells that highly express CCT

| binding to CCT2 subunit (CCT2 subunit) | Molecule | resistance of spheroids to treatment (MDA-MB-231 cells) | tumor regression [1] | cytotoxicity [2] |
| --- | --- | --- | --- | --- |
|  | N.N.O=C([O-])C1(C(=O)[O-])CCC1.[Pt+2] [carboplatin] | increased resistance |  |  |
|  | COc1cccc2c1C(=O)c1c(O)c3c(c(O)c1C2=O)C[C@@](O)(C(=O)CO)C[C@@H]3O[C@H]1C[C@H](N)[C@H](O)[C@H](C)O1 [doxorubicin] | increased resistance |  |  |
| directly binds | VTIFVAGVLTASLTIWKKMG [CT20p] |  | regression | cytotoxic |
